In US10221459B2, “Compositions and methods of treating cancer harboring PIKC3A mutations” (Case Western Reserve University, priority 2014, dated 2019):

Columns and labels:
HCT116 xenograft tumors = test: Xenograft study, HCT116 (parental cells); type: in vivo, mice; conditions: for combinational effect with AOA: drug combined with AOA (10 mg/kg), HCT116 xenograft; for tumor regression: alone or in combination
From the text: (§1) FIGS. 4(A-D) illustrate plots showing aminooxyacetate (AOA) inhibits xenograft tumor growth of PIK3CA mutant CRCs but not PIK3CA WT CRCs. (A-B) AOA inhibits growth of xenograft formed by PIK3CA mutant clones but not PIK3CA WT clones. (A) Clones derived from HCT116 cells; (B) Clones derived from DLD1. (C) AOA inhibits growth of xenograft tumors formed by four CRC cell lines harboring PIK3CA mutations. […] N=5 mice in each experimental group. Data are presented as mean±SEM.
FIGS. 10(A-B) illustrate plots showing AOA synergizes with 5-FU to inhibit growth of HCT116 xenograft tumors.
FIGS. 12(A-B) illustrate images and a plot showing the combination of CB-839 and 5-FU shrinks HCT116 xenograft tumors.
(§2) Animal experiments were approved by the Case Western Reserve University Animal Care and Use Committee. As described in, 3 million cells were injected subcutaneously into the flanks of 4 to 6-week-old female athymic nude mice. Mice were randomly assigned into treatment groups (5 mice/group). When average tumor volume reached 100 mm3, mice were treated with vehicle control, 5 mg/kg or 10 mg/kg of AOA every day per IP (intraperitoneal) injection. Tumor volumes were measured with an electronic caliper and calculated as length×width^2/2.

[1] = test system: ATF4 protein levels in the HCT116 PIK3CA mutant clone; test: ATF4 protein levels after inhibitor exposure (immunoblot); type: cell-based; conditions: Western blot (FIG. 6C)
Protocol: Ubiquitination of endogenous ATF4 (A). Ubiquitination of ectopically expressed Flag-tagged ATF4 and HA-tagged ubiquitin (B).
Cells were lysed in RIPA buffer [10 mM Tris (pH 7.4), 150 mM NaCl, 5 mM EDTA (pH 8.0), 0.1% SDS, 1% Triton-X100, 1 mM DTT, 1 mM PMSF, complete Protease Inhibitor Cocktail tablet (Roche); supplemented with phosphatase inhibitors (1 mM Na3VO4, 50 mM NaF, 1 mM β-glycerophosphate, 20 mM sodium pyrophosphate)]. Lysates were then cleared by centrifugation at 14,000 rpm for 10 min and protein concentration in supernatants was determined by the BCA protein assay kit (Pierce). Equal amounts of total protein were used for immunoblotting. For immunoprecipitation (IP), cells were lysed as mentioned above. Cleaned cell lysate incubated with antibody for one hour, and then protein A and/or protein G for one hour. Protein A/G beads were washed with lysis buffer three times, and then boiled with SDS-loading buffer followed with immunoblotting.

DLD1 xenograft tumors = test: Xenograft study, DLD1 (parental cells); type: in vivo, mice; conditions: DLD1 parental cells (PIK3CA mutant); AOA every day IP
From the text: as §1, §2

RKO xenograft tumors = test: Xenograft study, RKO; type: in vivo, mice; conditions: RKO (PIK3CA mutant); AOA every day IP
From the text: as §1, §2

SW480 xenograft tumors = test: Xenograft study, SW480; type: in vivo, mice; conditions: SW480 (WT PIK3CA); AOA every day IP
From the text: as §1, §2

[2] = test system: HCT116 PIK3CA mutant and WT clones; test: Growth inhibition in tissue culture, HCT116 PIK3CA mutant vs WT clones; type: cell-based; conditions: for sensitivity to growth inhibition, PIK3CA-/mut vs PIK3CA WT/- cells: HCT116, various doses
From the text: (§3) FIGS. 9(A-C) illustrate graphs and an immunoblot showing aminooxyacetate (AOA) inhibits PIK3CA mutant tumor growth. (A) IC50 of AOA in HCT116 and DLD1 PIK3CA WT and mutant clones. (B) Body weights of the mice with xenograft established from the indicated CRC cells before and after AOA treatment. N=5 mice in each group. (C) Western blot analyses of GPT2 protein levels in the indicated cell lines.
(§4) To test if PIK3CA mutations render cancer cell sensitive to these inhibitors, we treated PIK3CA-/mut, PIK3CA WT/-HCT116 and DLD1 colon cancer cells with various doses of EGCG and BPTES.

[3] = test system: DLD1 PIK3CA WT clone xenograft; test: Xenograft study, DLD1 PIK3CA WT clone; type: in vivo; conditions: isogenic DLD1 PIK3CA WT clone in nude mice; AOA every day IP
From the text: as §1, §2

[4] = test system: HCT116 PIK3CA mutant clone xenograft; test: Xenograft study, HCT116 PIK3CA mutant clone; type: in vivo; conditions: HCT116 PIK3CA mutant clone in nude mice; AOA 5 or 10 mg/kg every day IP
From the text: as §1, §2

LOVO xenograft tumors = test: Xenograft study, LOVO; type: in vivo, mice; conditions: LOVO (WT PIK3CA); AOA every day IP
From the text: as §1, §2

[5] = test system: DLD1 PIK3CA mutant and WT clones; test: Growth inhibition in tissue culture, DLD1 PIK3CA mutant vs WT clones; type: cell-based; conditions: for sensitivity to growth inhibition, PIK3CA-/mut vs PIK3CA WT/- cells: DLD1, various doses
From the text: as §3, §4

Recombinant GPT2 = target: T1, Recombinant GPT2 (Homo sapiens, UniProt Q8TD30); test: GPT2 enzymatic assay (colorimetric pyruvate detection); type: biochemical; conditions: recombinant GPT2 mixed with α-KG and alanine; read-out: IC50 of AOA to GPT2
T1 sequence (Q8TD30 1-523): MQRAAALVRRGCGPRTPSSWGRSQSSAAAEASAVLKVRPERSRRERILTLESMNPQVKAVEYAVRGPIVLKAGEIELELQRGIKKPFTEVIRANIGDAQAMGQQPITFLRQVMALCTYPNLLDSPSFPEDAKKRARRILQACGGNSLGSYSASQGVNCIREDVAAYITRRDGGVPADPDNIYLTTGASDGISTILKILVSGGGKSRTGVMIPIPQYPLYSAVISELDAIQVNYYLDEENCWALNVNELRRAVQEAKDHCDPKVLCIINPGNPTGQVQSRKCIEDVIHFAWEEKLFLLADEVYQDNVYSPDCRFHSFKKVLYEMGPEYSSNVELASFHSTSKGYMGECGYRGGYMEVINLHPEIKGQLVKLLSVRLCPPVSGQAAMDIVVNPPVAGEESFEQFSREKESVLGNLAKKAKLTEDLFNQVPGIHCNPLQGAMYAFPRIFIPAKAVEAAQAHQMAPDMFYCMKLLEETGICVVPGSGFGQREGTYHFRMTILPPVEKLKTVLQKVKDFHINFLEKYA
Protocol: (§5) FIGS. 11(A-C) illustrate plots and graph showing (A) enzyme kinetics of GPT2. Recombinant GPT2 was mixed with α-KG and alanine. The product pyruvate was detected by a colorimetric assay. (B) IC50 of AOA to GPT2. (C) Relative amounts of α-KG. Xenograft tumors were treated with 10 mg/kg of AOA or vehicle. α-KG in a untreated tumor was set as 100%.
(§6) However, AOA is pan-transaminase inhibitor.

HT29 xenograft tumors = test: Xenograft study, HT29; type: in vivo, mice; conditions: HT29 (PIK3CA mutant); AOA every day IP
From the text: as §1, §2

[6] = test system: HCT116 PIK3CA WT clone xenograft; test: Xenograft study, HCT116 PIK3CA WT clone; type: in vivo; conditions: isogenic HCT116 PIK3CA WT clone in nude mice; AOA every day IP
From the text: as §1, §2

GPT activity = GPT activity in treated xenograft tumors assayed by amounts of α-KG; type: in vivo, mice; conditions: Mus musculus, AOA 10 mg/kg
Protocol: as §5, §6

[7] = test system: DLD1 PIK3CA mutant clone xenograft; test: Xenograft study, DLD1 PIK3CA mutant clone; type: in vivo; conditions: DLD1 PIK3CA mutant clone in nude mice; AOA 5 or 10 mg/kg every day IP
From the text: as §1, §2

[8] = Body weights of xenograft mice before and after AOA treatment; type: in vivo; conditions: xenograft mice treated with AOA
From the text: as §3, §2

[9] = HCT116 (PIK3CA mutant CRC) xenograft
[10] = single agent, HCT116 (PIK3CA mutant CRC) xenograft

## CCc1c2c(nc3ccc(OC(=O)N4CCC(N5CCCCC5)CC4)cc13)-c1cc3c(c(=O)n1C2)COC(=O)[C@]3(O)CC [irinotecan]
HCT116 xenograft tumors
  combinational effect with AOA: none of the other drug showed any combinational effect with AOA

## CNc1nc(-c2ccc3c(N)n[nH]c3c2)cc(N2C[C@@H](C(=O)NC3CCCCC3)CC[C@H]2C)n1 [GSK2334470]
[1]
  ATF4 protein levels: reduced ATF4 protein levels

## CC(C)CCN1c2nc(Nc3cc(F)c(O)c(F)c3)ncc2N(C)C(=O)C1C (stereo not shown) [BI-D1870]
[1]
  ATF4 protein levels: reduced ATF4 protein levels

## CCn1c(-c2nonc2N)nc2c(C#CC(C)(C)O)ncc(OC[C@H]3CCCNC3)c21 [GSK690693]
[1]
  ATF4 protein levels: neither an AKT inhibitor (GSK690693) nor an inhibitor (CHIR-99021) of GSK3β(a known downstream effector of AKT) had any effect on ATF4 protein levels

## NOCC(=O)O [AOA, aminooxyacetate]
DLD1 xenograft tumors
  xenograft tumor growth: inhibited xenograft tumor growth
HCT116 xenograft tumors; HCT116 parental cells (PIK3CA mutant), AOA every day IP
  xenograft tumor growth: inhibited xenograft tumor growth
RKO xenograft tumors
  xenograft tumor growth: inhibited xenograft tumor growth
SW480 xenograft tumors
  xenograft tumor growth: had no effect on xenograft tumor growth
[2]; HCT116 clones
  sensitivity to AOA treatment, PIK3CA mutant clones vs WT clones: more sensitive to AOA treatment than the WT clones
[3]
  xenograft tumor growth: had no effect
[4]
  xenograft tumor growth: significantly inhibited the growth
LOVO xenograft tumors
  xenograft tumor growth: had no effect on xenograft tumor growth
[5]; DLD1 clones
  sensitivity to AOA treatment, PIK3CA mutant clones vs WT clones: more sensitive to AOA treatment than the WT clones
Recombinant GPT2
  IC50: 980 nM
HT29 xenograft tumors
  xenograft tumor growth: inhibited xenograft tumor growth
[6]
  xenograft tumor growth: had no effect
GPT activity
  inhibition at 10 mg/kg: ~30%
[7]
  xenograft tumor growth: significantly inhibited the growth
[8]
  weight loss of treated mice: No weight loss was observed

## O=C(O[C@@H]1Cc2c(O)cc(O)cc2O[C@@H]1c1cc(O)c(O)c(O)c1)c1cc(O)c(O)c(O)c1 [EGCG, Epigallocatechin gallate]
[2]
  sensitivity to growth inhibition, PIK3CA-/mut vs PIK3CA WT/- cells: more sensitive to growth inhibition
[5]
  sensitivity to growth inhibition, PIK3CA-/mut vs PIK3CA WT/- cells: more sensitive to growth inhibition

## CNC(=O)c1cc(Oc2ccc(NC(=O)Nc3ccc(Cl)c(C(F)(F)F)c3)c(F)c2)ccn1 [regorafenib]
HCT116 xenograft tumors
  combinational effect with AOA: none of the other drug showed any combinational effect with AOA

## O=c1[nH]cc(F)c(=O)[nH]1 [5-FU, 5-fluorouracil]
HCT116 xenograft tumors; [9]
  tumor regression: neither induced tumor regression
HCT116 xenograft tumors; [10]
  xenograft tumor growth: inhibited tumor growth to various extents

## O=C1[O][Pt]2([NH][C@@H]3CCCC[C@H]3[NH]2)[O]C1=O [oxaliplatin]
HCT116 xenograft tumors
  combinational effect with AOA: none of the other drug showed any combinational effect with AOA

## Cn1c(=O)n(-c2ccc(C(C)(C)C#N)cc2)c2c3cc(-c4cnc5ccccc5c4)ccc3ncc21 [DEZ235]
[1]
  ATF4 protein levels: reduced ATF4 protein levels

## O=C(Cc1cccc(OC(F)(F)F)c1)Nc1ccc(CCCCc2nnc(NC(=O)Cc3ccccn3)s2)nn1 [CB-839]
HCT116 xenograft tumors; [9]
  tumor regression: neither induced tumor regression
HCT116 xenograft tumors; [10]
  xenograft tumor growth: inhibited tumor growth to various extents

## Cc1ccc(-c2c(C(=O)CF)n(CCCO)c3ncnc(N)c23)cc1 [FMK]
[1]
  ATF4 protein levels: reduced ATF4 protein levels

## O=C(Cc1ccccc1)Nc1nnc(CCSCCc2nnc(NC(=O)Cc3ccccc3)s2)s1 [BPTES]
[2]
  sensitivity to growth inhibition, PIK3CA-/mut vs PIK3CA WT/- cells: more sensitive to growth inhibition
[5]
  sensitivity to growth inhibition, PIK3CA-/mut vs PIK3CA WT/- cells: more sensitive to growth inhibition
